Data: PubChem BioAssay AID1996
In brackets after ≈: the same amount, converted by molar mass.

Conditions: buffer; pH 7.4; 200.0 µM
Compound `O=C(c1ccco1)N1CCC(c2nc3ccccc3[nH]2)CC1` has a solubility kinetic of over 44.3 µg/mL.
For `O=C(COC(=O)CNC(=O)c1ccccc1)Nc1ccc(Cl)cn1`, the solubility kinetic was 15.8 µg/mL (≈ 45.4 µM).
`COc1ccc(CCNC(=O)c2cc(C3CC3)on2)cc1OC` showed a solubility kinetic of over 47.5 µg/mL.
Compound `S=C(NCc1ccc(Cl)c(Cl)c1)NCc1ccco1` has a solubility kinetic of 23.1 µg/mL (≈ 73.3 µM).
In the case of `CNC(=O)c1ccccc1NC(=O)C1CC(=O)N(C(C)C)C1` (centres undefined), the solubility kinetic is reported as 44.7 µg/mL (≈ 147 µM).
Work on `Cc1ccc2c(c1)C1(OCCCO1)C(=O)N2CC#N` yielded a solubility kinetic of 37.6 µg/mL (≈ 146 µM).
Compound `COCCNC(=O)C(NC(=O)C1CCCCC1)C(C)C` (centres undefined) has a solubility kinetic of over 42.7 µg/mL.
With `CCN(CC)c1nc(-c2ccccc2)nc2c1sc(=S)n2CC` the solubility kinetic was under 0.2 µg/mL.
`COc1cccc(C(=O)Nc2cccc3ccccc23)c1` showed a solubility kinetic of 1.5 µg/mL (≈ 5.41 µM).
`Cn1c(N2CCOCC2)c(C=O)c2ccccc21` gave a solubility kinetic of over 36.6 µg/mL.
`CCOC(=O)Cn1ccc(-c2ccccc2)c(C#N)c1=O` gave a solubility kinetic of over 42.3 µg/mL.
In the case of `Fc1ccc(-c2csc(-c3ccncc3)n2)cc1`, the solubility kinetic is reported as 1.3 µg/mL (≈ 5.07 µM).
For `CC(C)(C)c1ccc(-c2noc(CCC(=O)Nc3cccnc3)n2)cc1`, the solubility kinetic was 3.1 µg/mL (≈ 8.85 µM).
Work on `O=C(CNC(=O)c1ccc2ccccc2c1)NCc1ccc(F)cc1` yielded a solubility kinetic of 1.9 µg/mL (≈ 5.65 µM).
For `CC(NCc1ccc2c(c1)OCO2)c1ccccc1.Cl` (centres undefined), the solubility kinetic was 41 µg/mL.
For `COc1ccc(S(=O)(=O)NCc2csc(C)n2)cc1OC`, the solubility kinetic was over 49.3 µg/mL.
Compound `Cc1ccccc1NC(=O)c1cccnc1` has a solubility kinetic of 20.7 µg/mL (≈ 97.5 µM).
Work on `N#Cc1cccc(NC(=O)COC(=O)c2cc(S(=O)(=O)Nc3ccccc3Cl)ccc2O)c1` yielded a solubility kinetic of 40.4 µg/mL (≈ 83.1 µM).
Compound `CC(C)c1ccccc1NC(=S)NC(=O)C1CCCCC1` has a solubility kinetic of 0.9 µg/mL (≈ 2.96 µM).
With `CCOC(=O)C1CCCN(C(=O)c2cc3ccc(OC)cc3[nH]2)C1` (centres undefined) the solubility kinetic was over 49.6 µg/mL.
For `Cc1ccc(NC(=O)CNC(=O)c2cccc(Cl)c2)nc1`, the solubility kinetic was 11.7 µg/mL (≈ 38.5 µM).
Compound `COc1cccc(CC(=O)NCC2(N3CCCCC3)CCCCC2)c1` has a solubility kinetic of over 51.7 µg/mL.
Compound `CC(=O)Nc1ccc(OC(=O)Cc2ccc(Cl)cc2)cc1` has a solubility kinetic of 1.4 µg/mL (≈ 4.61 µM).
For `Cc1cc(Nc2ccc(C(=O)N3CCCCC3)cc2)c2cccc(C)c2n1`, the solubility kinetic was 4.8 µg/mL (≈ 13.4 µM).
With `CC(C)N1CC(C(=O)Nc2ccc(C#N)cc2)CC1=O` (centres undefined) the solubility kinetic was over 40.7 µg/mL.
Compound `N#Cc1c(N2C(=O)c3ccc(C(=O)O)cc3C2=O)sc2c1CCCC2` has a solubility kinetic of over 52.9 µg/mL.
With `O=C(NC1=NCCS1)c1ccccc1Cl` the solubility kinetic was over 36.1 µg/mL.
Work on `CC(C)(C)c1csc(NC(=O)CCc2ccccc2)n1` yielded a solubility kinetic of 2.1 µg/mL (≈ 7.28 µM).
Compound `Cc1cc(C(=O)NC2CCC(O)CC2)c(C)o1` (centres undefined) has a solubility kinetic of over 35.6 µg/mL.
With `Cc1ccccc1NC(=O)NCCCCc1ccccc1` the solubility kinetic was 1.5 µg/mL (≈ 5.31 µM).
`COc1ccc(C(=O)CC(=O)C(=O)Nc2cccc(F)c2)cc1` showed a solubility kinetic of 19 µg/mL (≈ 60.3 µM).
`CCOC(=O)c1sc(NC(=O)Cc2ccccc2OC)nc1C` showed a solubility kinetic of 14.7 µg/mL (≈ 44 µM).
For `Cc1c(C(=O)OCC(=O)N2C(C)CCCC2C)oc2ccccc12` (centres undefined), the solubility kinetic was 44.1 µg/mL (≈ 134 µM).
`Cc1cc(C(=O)Nc2ccccc2Cl)c2ccccc2n1` gave a solubility kinetic of 36.8 µg/mL (≈ 124 µM).
`COc1ccc(C(=O)c2oc3ccc(OC)cc3c2NC(C)=O)cc1` showed a solubility kinetic of under 0.7 µg/mL.
For `COCCN(C(=S)Nc1ccc(C)cc1)C(C)c1ccco1` (centres undefined), the solubility kinetic was 3.4 µg/mL (≈ 10.7 µM).
With `CN(Cc1nc2ccccc2s1)C(=O)c1ccc(F)cc1` the solubility kinetic was over 45.1 µg/mL.
Compound `Cc1cc(NC(=O)C(Cl)c2ccccc2)no1` (centres undefined) has a solubility kinetic of over 37.6 µg/mL.
With `O=C(Nc1ccc(Cl)cn1)c1ccc(Oc2ccccc2)cc1` the solubility kinetic was under 0.3 µg/mL.
In the case of `CC(=O)c1ccc(NC(=O)c2cnsn2)cc1`, the solubility kinetic is reported as 29.1 µg/mL (≈ 118 µM).
Compound `O=S(=O)(CCSc1ccc(C(F)(F)F)cn1)c1ccccc1` has a solubility kinetic of 4.7 µg/mL (≈ 13.5 µM).
Work on `Fc1ccc(NC(=S)N2CCc3[nH]c4ccccc4c3C2)cc1` yielded a solubility kinetic of 1.2 µg/mL (≈ 3.69 µM).
In the case of `Cc1c(C)n(CCc2ccccc2)c2ncnc(NCCCO)c12`, the solubility kinetic is reported as 48.3 µg/mL (≈ 149 µM).
With `Nc1nnc(SCC(=O)OCC(=O)NC2CCCCC2)s1` the solubility kinetic was over 49.6 µg/mL.
`O=C(Nc1cc2c(cc1[N+](=O)[O-])OCCO2)c1cccnc1` showed a solubility kinetic of 5.1 µg/mL (≈ 16.9 µM).
Compound `Cc1cc(NC(=O)c2cccs2)ncc1NC(=O)C(C)C` has a solubility kinetic of over 45.5 µg/mL.
`Cc1ccc(S(=O)(=O)NCc2cccnc2)cc1C` showed a solubility kinetic of over 41.5 µg/mL.
`O=c1[nH]c2ccccc2[nH]c1=O` gave a solubility kinetic of over 24.3 µg/mL.
`Cc1ccc(CSc2nccc(-c3c(C)nc4ccccn34)n2)cc1` gave a solubility kinetic of 1.6 µg/mL (≈ 4.62 µM).
